The results in this text go back to patent US10899737B2, “Piperazine carbamates and methods of making and using same” (Lundbeck La Jolla Research Center, Inc., priority 2016, dated 2021).

Molecules are shown by their SMILES.

Experiment [1] addresses T1, MAGL (Mus musculus, UniProt O35678).
T1 construct: Proteomes (mouse brain membrane fraction or cell lysates); from tissue; host or cells: mouse brain membrane fraction or cell lysates
T1 sequence (O35678 1-303): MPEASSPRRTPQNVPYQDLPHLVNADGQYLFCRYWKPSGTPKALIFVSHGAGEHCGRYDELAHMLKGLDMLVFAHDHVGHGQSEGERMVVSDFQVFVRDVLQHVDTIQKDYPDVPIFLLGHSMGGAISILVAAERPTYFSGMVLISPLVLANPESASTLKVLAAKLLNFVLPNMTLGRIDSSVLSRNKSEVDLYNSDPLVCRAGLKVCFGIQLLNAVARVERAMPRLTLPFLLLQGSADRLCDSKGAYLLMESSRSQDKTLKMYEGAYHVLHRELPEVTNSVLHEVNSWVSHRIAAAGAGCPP
The experiment in a line: In vitro competitive activity-based protein profiling (mouse), MAGL. The following applies: for inhibition at 1 µM: 1 μM inhibitor, mouse brain membrane fraction or cell lysates, read-out: MAGL % inh. 1 μM (mouse); for IC50: mouse proteome. Type of experiment: biochemical. A digest of the protocol:
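Mouse brain membrane fraction or cell lysate proteomes (50 μL, 1.0 mg/mL total protein) were preincubated with inhibitors at varying concentrations for 30 min at 37° C. FP-Rh (1.0 μL, 50 μM in DMSO) was then added for a further 30 min at 37° C. Samples were quenched with 4× SDS loading buffer and resolved by SDS-PAGE. MAGL activity was quantified from fluorescent gel band intensity using ImageJ 1.49 k.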

Experiment [2] deals with T2, ABHD6 (Homo sapiens, UniProt Q9BV23).
T2 construct: Proteomes (human prefrontal cortex or cell membrane fractions); endogenous in cells; human prefrontal cortex
T2 sequence (Q9BV23 1-337): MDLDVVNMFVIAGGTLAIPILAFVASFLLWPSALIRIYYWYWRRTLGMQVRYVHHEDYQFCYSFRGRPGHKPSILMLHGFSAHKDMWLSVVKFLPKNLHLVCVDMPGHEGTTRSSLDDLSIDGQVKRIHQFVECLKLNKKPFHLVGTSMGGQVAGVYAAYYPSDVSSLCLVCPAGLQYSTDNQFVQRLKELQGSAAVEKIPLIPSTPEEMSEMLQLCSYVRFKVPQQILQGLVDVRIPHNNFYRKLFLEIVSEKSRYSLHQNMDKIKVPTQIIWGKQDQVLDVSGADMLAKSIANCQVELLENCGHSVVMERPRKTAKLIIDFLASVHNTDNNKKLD
The experiment in a line: In vitro competitive activity-based protein profiling (human), ABHD6. Type of experiment: biochemical. The following applies: human PC3. The essentials: (§1)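 Human prefrontal cortex or cell membrane proteomes (1.0-2.0 mg/mL protein) preincubated 30 min at 37° C with inhibitor, then labeled 30 min RT with FP-Rh or JW912 probe. After SDS-PAGE, activity taken from fluorescent band intensity for each enzyme.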

In experiment [3] the target is T3, MAGL (Homo sapiens, UniProt Q99685).
T3 construct: Proteomes (human prefrontal cortex or cell membrane fractions); from tissue
T3 sequence (Q99685 1-303): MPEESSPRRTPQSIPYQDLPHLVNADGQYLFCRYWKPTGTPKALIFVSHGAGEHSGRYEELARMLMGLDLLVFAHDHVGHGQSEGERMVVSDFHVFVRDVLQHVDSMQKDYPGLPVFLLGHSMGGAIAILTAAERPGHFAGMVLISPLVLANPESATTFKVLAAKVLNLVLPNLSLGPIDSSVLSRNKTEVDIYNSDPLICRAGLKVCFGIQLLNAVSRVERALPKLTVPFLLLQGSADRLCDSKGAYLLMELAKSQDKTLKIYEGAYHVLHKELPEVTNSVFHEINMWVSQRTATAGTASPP
The experiment in a line: In vitro competitive activity-based protein profiling (human), MAGL. Type of experiment: biochemical. The following applies: for inhibition at 1 µM: 1 μM inhibitor, human proteome, 30 min preincubation at 37° C, read-out: MAGL % inh. 1 μM (human); for IC50: human PC3. The essentials: as §1

Experiment [4] deals with T4, ABHD6 (Mus musculus, UniProt Q8R2Y0).
T4 construct: Proteomes (mouse brain membrane fraction or cell lysates); from tissue; host or cells: mouse brain membrane fraction or cell lysates
T4 sequence (Q8R2Y0 1-336): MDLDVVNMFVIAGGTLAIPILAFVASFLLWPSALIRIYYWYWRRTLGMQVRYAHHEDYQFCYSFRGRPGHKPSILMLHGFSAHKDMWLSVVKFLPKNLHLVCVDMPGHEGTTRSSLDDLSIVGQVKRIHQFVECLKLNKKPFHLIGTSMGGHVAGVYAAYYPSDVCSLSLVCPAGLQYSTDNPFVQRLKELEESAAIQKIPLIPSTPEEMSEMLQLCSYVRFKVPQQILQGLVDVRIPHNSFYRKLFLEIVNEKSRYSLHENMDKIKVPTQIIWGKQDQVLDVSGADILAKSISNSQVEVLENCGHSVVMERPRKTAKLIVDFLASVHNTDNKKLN
The experiment in a line: In vitro competitive activity-based protein profiling (mouse), ABHD6. Type of experiment: biochemical. As to conditions: 1 μM inhibitor, mouse brain membrane fraction or cell lysates; read-out: ABHD6 % inh. 1 μM (mouse). A digest of the protocol: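 Mouse brain membrane proteome or cell lysate (1.0 mg/mL protein) preincubated 30 min at 37 °C with inhibitor, then labelled 30 min at 37 °C with FP-rhodamine probe. Remaining MAGL and ABHD6 activity quantified by in-gel fluorescence band intensity after SDS-PAGE; values are % inhibition at 1 μM.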

Experiment [5] deals with T1, MAGL. The experiment in a line: Mouse brain proteomes from inhibitor treated mice, MAGL inhibition. Type of experiment: in vivo. The following applies: 5 mg/kg oral gavage, C57Bl/6J mouse brain, 4 h following administration; read-out: MAGL % inh. 5 mg/kg (mouse). The method, then: Preparation of Mouse Brain Proteomes from Inhibitor Treated Mice.
Inhibitors were administered to wild-type C57Bl/6J by oral gavage in a vehicle of polyethylene glycol. Each animal was sacrificed 4 h following administration and brain proteomes were prepared and analyzed according to previously established methods (See Niphakis, M. J., et al. (2011) ACS Chem. Neurosci. and Long, J. Z., et al. Nat. Chem. Biol. 5:37-44).

In general, IC50 refers to the concentration that gives 50% inhibition. High values mean lower potency, low ones higher potency. On to `O=C(OC(C(F)(F)F)C(F)(F)F)N1CCN(Cc2ccccc2C2(C(=O)O)CCCC2)CC1` [Example 36, 1-(2-((4-(((1,1,1,3,3,3-hexafluoropropan-2-yl)oxy)carbonyl)piperazin-1-yl)methyl)phenyl)cyclopentane-1-carboxylic acid], for which the inhibition at 1 µM on MAGL [1] was at least 75%; at MAGL [3] it was at least 75%; on ABHD6 [4] it was 0 to 25%. Moreover, the half-inhibitory concentration (IC50) at ABHD6 [2] is 1 to 10 µM; on MAGL [3], at most 0.1 µM. In addition, the inhibition at 5 mg/kg at MAGL [5] is at least 75%.

Regarding `O=C(O)CN1CC2(CCN(c3cc(C(F)(F)F)ccc3CN3CCN(C(=O)OC(C(F)(F)F)C(F)(F)F)CC3)C2)C1` [Example 22, 2-(6-(2-((4-(((1,1,1,3,3,3-Hexafluoropropan-2-yl)oxy)carbonyl)piperazin-1-yl)methyl)-5-(trifluoromethyl)phenyl)-2,6-diazaspiro[3.4]octan-2-yl)acetic Acid], the inhibition at 1 µM at MAGL [1] was at least 75%; at MAGL [3], at least 75%; on ABHD6 [4], 0 to 25%. For the same compound, the 50% inhibitory concentration (IC50) is 1 to 10 µM on ABHD6 [2] and at most 0.1 µM at MAGL [3]. Moreover, the inhibition at 5 mg/kg on MAGL [5] fell in the range of 0 to 25%.

In the case of `CC1(C(=O)O)CCN(c2cc(C(F)(F)F)ccc2CN2CCN(C(=O)OC(C(F)(F)F)C(F)(F)F)CC2)C1` (stereo not drawn) [Example 55, 1-{2-[(4-{[(1,1,1,3,3,3-hexafluoropropan-2-yl)oxy]carbonyl}piperazin-1-yl)methyl]-5-(trifluoromethyl)phenyl}-3-methylpyrrolidin-3-carboxylic acid], the inhibition at 1 µM on MAGL [1], at MAGL [3] and on ABHD6 [4] was at least 75% in each case. Also, the IC50 at ABHD6 [2] is 0.1 to 1 µM; at MAGL [3], at most 0.1 µM. In addition, the inhibition at 5 mg/kg at MAGL [5] is 25 to 50%.

Turning to `O=C(O)C1CCN(C(=O)c2cc(C(F)(F)F)ccc2CN2CCN(C(=O)OC(C(F)(F)F)C(F)(F)F)CC2)CC1` [Example 35, 1-(2-((4-(((1,1,1,3,3,3-Hexafluoropropan-2-yl)oxy)carbonyl)piperazin-1-yl)methyl)-5-(trifluoromethyl)benzoyl)piperidine-4-carboxylic Acid], the inhibition at 1 µM at MAGL [1] was at least 75%; on MAGL [3], at least 75%; on ABHD6 [4], 0 to 25%. Further, the IC50 on MAGL [1] fell in the range of 0.1 to 1 µM; at ABHD6 [2], 1 to 10 µM; on MAGL [3] it was 0.1 to 1 µM. In addition, the inhibition at 5 mg/kg on MAGL [5] was 0 to 25%.

Take `CCC(C(=O)O)n1cc(-c2cc(C(F)(F)F)ccc2CN2CCN(C(=O)OC(C(F)(F)F)C(F)(F)F)CC2)cn1` (stereo not drawn) [Example 5, 2-(4-(2-((4-(((1,1,1,3,3,3-Hexafluoropropan-2-yl)oxy)carbonyl)piperazin-1-yl)methyl)-5-(trifluoromethyl)phenyl)-1H-pyrazol-1-yl)butanoic Acid]: the inhibition at 1 µM at MAGL [1], on MAGL [3] and at ABHD6 [4] was at least 75% in each case. The IC50 at ABHD6 [2] is 0.1 to 1 µM; at MAGL [3], at most 0.1 µM. Also, the inhibition at 5 mg/kg on MAGL [5] lay within 0 to 25%.

For the compound `O=C(O)CN1CCC(c2cc(C(F)(F)F)ccc2CN2CCN(C(=O)OC(C(F)(F)F)C(F)(F)F)CC2)CC1` [Example 31, 2-(4-(2-((4-(((1,1,1,3,3,3-Hexafluoropropan-2-yl)oxy)carbonyl)piperazin-1-yl)methyl)-5-(trifluoromethyl)phenyl)piperidin-1-yl)acetic Acid], the inhibition at 1 µM at MAGL [1] was at least 75%; at MAGL [3], at least 75%; at ABHD6 [4], 0 to 25%. Moreover, the IC50 was in the range of 1 to 10 µM at ABHD6 [2] and 0.1 to 1 µM at MAGL [3]. In addition, the inhibition at 5 mg/kg on MAGL [5] was 0 to 25%.

Turning to `O=C(O)CN1CCCC12CN(c1cc(C(F)(F)F)ccc1CN1CCN(C(=O)OC(C(F)(F)F)C(F)(F)F)CC1)C2` [Example 24, 2-(2-(2-((4-(((1,1,1,3,3,3-Hexafluoropropan-2-yl)oxy)carbonyl)piperazin-1-yl)methyl)-5-(trifluoromethyl)phenyl)-2,5-diazaspiro[3.4]octan-5-yl)acetic Acid], the inhibition at 1 µM at MAGL [1] was at least 75%; at MAGL [3], at least 75%; at ABHD6 [4], 0 to 25%. Moreover, the IC50 on MAGL [1] was at most 0.1 µM; on ABHD6 [2], 1 to 10 µM; on MAGL [3] it was at most 0.1 µM. At MAGL [5], the inhibition at 5 mg/kg is at least 75%.

`CC1(NCC(=O)O)CCN(c2cc(C(F)(F)F)ccc2CN2CCN(C(=O)OC(C(F)(F)F)C(F)(F)F)CC2)CC1` [Example 51, (1-(2-((4-(((1,1,1,3,3,3-hexafluoropropan-2-yl)oxy)carbonyl)piperazin-1-yl)methyl)-5-(trifluoromethyl)phenyl)-4-methylpiperidin-4-yl)glycine]: the inhibition at 1 µM at MAGL [1] was at least 75%; at MAGL [3] it was at least 75%; at ABHD6 [4], 0 to 25%. Moreover, the results for the concentration for half-maximal inhibition (IC50) on ABHD6 [2] and at MAGL [3] were 1 to 10 µM and at most 0.1 µM, respectively. The inhibition at 5 mg/kg at MAGL [5] fell in the range of 0 to 25%.

As to `O=C(O)CN1CC2(CCN(c3cc(C(F)(F)F)ccc3CN3CCN(C(=O)OC(C(F)(F)F)C(F)(F)F)CC3)CC2)C1` [Example 21, 2-(7-(2-((4-(((1,1,1,3,3,3-Hexafluoropropan-2-yl)oxy)carbonyl)piperazin-1-yl)methyl)-5-(trifluoromethyl)phenyl)-2,7-diazaspiro[3.5]nonan-2-yl)acetic Acid], the results for the inhibition at 1 µM on MAGL [1], at MAGL [3] and on ABHD6 [4] were at least 75%, at least 75% and 0 to 25%, respectively. In addition, the concentration for half-maximal inhibition (IC50) on MAGL [1] is at most 0.1 µM; at ABHD6 [2], 1 to 10 µM; on MAGL [3], at most 0.1 µM. The inhibition at 5 mg/kg on MAGL [5] lay in the range of 0 to 25%.

In the case of `Cc1ccc(CN2CCN(C(=O)OC(C(F)(F)F)C(F)(F)F)CC2)c(N2CCC(C(=O)O)CC2)c1F` [Example 59, 1-(2-fluoro-6-((4-(((1,1,1,3,3,3-hexafluoropropan-2-yl)oxy)carbonyl)piperazin-1-yl)methyl)-3-methylphenyl)piperidine-4-carboxylic acid], the inhibition at 1 µM at MAGL [1], on MAGL [3] and at ABHD6 [4] was at least 75% each time. Besides, the IC50 at ABHD6 [2] was 1 to 10 µM; on MAGL [3], at most 0.1 µM. Further, on MAGL [5], the inhibition at 5 mg/kg is at least 75%.
